In the CheMixHub viscosity set:
Where “and” joins values, the source holds several entries; their conditions need not be identical. Equal values may be shown once.

Assay: xn = mol fraction of the nth substance listed

CC(C)O + O
Settings	viscosity
293.15 K, 100 kPa, x1 = 0.2	3.802 mPa·s and 3.645 mPa·s
293.15 K, 100 kPa, x1 = 0.3	3.735 mPa·s
293.15 K, 101 kPa, x1 = 0.01	1.17 mPa·s
293.15 K, 101 kPa, x1 = 0.02	1.369 mPa·s
293.15 K, 101 kPa, x1 = 0.032	1.67 mPa·s
293.15 K, 101 kPa, x1 = 0.05	2.062 mPa·s
293.15 K, 101 kPa, x1 = 0.07069	2.544 mPa·s
293.15 K, 101 kPa, x1 = 0.1	3.054 mPa·s
293.15 K, 101 kPa, x1 = 0.11	3.26 mPa·s
293.15 K, 101 kPa, x1 = 0.2	3.741 mPa·s
293.15 K, 101 kPa, x1 = 0.23	3.875 mPa·s
293.15 K, 101 kPa, x1 = 0.41	3.493 mPa·s
298.15 K, 101 kPa, x1 = 0.01	1.029 mPa·s
298.15 K, 101 kPa, x1 = 0.02	1.188 mPa·s
298.15 K, 101 kPa, x1 = 0.032	1.416 mPa·s
298.15 K, 101 kPa, x1 = 0.07069	2.089 mPa·s
298.15 K, 101 kPa, x1 = 0.1	2.472 mPa·s
298.15 K, 101 kPa, x1 = 0.11	2.601 mPa·s
298.15 K, 101 kPa, x1 = 0.23	3.141 mPa·s
298.15 K, 101 kPa, x1 = 0.41	2.912 mPa·s
298.15 K, 101 kPa, x2 = 0.26	2.142 mPa·s
298.15 K, 101 kPa, x2 = 0.4678	2.527 mPa·s
298.15 K, 101 kPa, x2 = 0.6079	2.87 mPa·s
298.15 K, 101 kPa, x2 = 0.685	3.03 mPa·s
298.15 K, 101 kPa, x2 = 0.7249	3.054 mPa·s
298.15 K, 101 kPa, x2 = 0.805	2.978 mPa·s
298.15 K, 101 kPa, x2 = 0.89	2.431 mPa·s
298.15 K, 101 kPa, x2 = 0.9549	1.655 mPa·s
298.15 K, 101.33 kPa, x1 = 0.015	1.112 mPa·s
298.15 K, 101.33 kPa, x1 = 0.05	1.747 mPa·s
298.15 K, 101.33 kPa, x1 = 0.075	2.181 mPa·s
298.15 K, 101.33 kPa, x1 = 0.15	2.883 mPa·s
298.15 K, 101.33 kPa, x1 = 0.2	3.008 mPa·s
298.15 K, 101.33 kPa, x1 = 0.25	3.057 mPa·s
298.15 K, 101.33 kPa, x1 = 0.3	3.026 mPa·s
298.15 K, 101.33 kPa, x1 = 0.4	2.855 mPa·s
298.15 K, 101.33 kPa, x1 = 0.5	2.631 mPa·s
298.15 K, 101.33 kPa, x1 = 0.6	2.411 mPa·s
298.15 K, 101.33 kPa, x1 = 0.7	2.23 mPa·s
298.15 K, 101.33 kPa, x1 = 0.8	2.098 mPa·s
298.15 K, 101.33 kPa, x1 = 0.9	2.03 mPa·s
298.15 K, 101.33 kPa, x1 = 0.925	2.026 mPa·s
298.15 K, 101.33 kPa, x1 = 0.95	2.031 mPa·s
303.15 K, 100 kPa, x2 = 0.1	1.77 mPa·s
303.15 K, 100 kPa, x2 = 0.2	1.83 mPa·s
303.15 K, 100 kPa, x2 = 0.3	1.95 mPa·s
303.15 K, 100 kPa, x2 = 0.4	2.1 mPa·s
303.15 K, 100 kPa, x2 = 0.5	2.25 mPa·s
303.15 K, 100 kPa, x2 = 0.6	2.42 mPa·s
303.15 K, 100 kPa, x2 = 0.7	2.54 mPa·s
303.15 K, 100 kPa, x2 = 0.8	2.47 mPa·s
303.15 K, 100 kPa, x2 = 0.9	1.95 mPa·s
303.15 K, 101 kPa, x1 = 0.01	0.912 mPa·s
303.15 K, 101 kPa, x1 = 0.02	1.04 mPa·s
303.15 K, 101 kPa, x1 = 0.05	1.467 mPa·s
303.15 K, 101 kPa, x1 = 0.07069	1.735 mPa·s
303.15 K, 101 kPa, x1 = 0.1	2.041 mPa·s
303.15 K, 101 kPa, x1 = 0.2	2.504 mPa·s
303.15 K, 101 kPa, x1 = 0.23	2.573 mPa·s
303.15 K, 101 kPa, x1 = 0.41	2.434 mPa·s
303.15 K, 101 kPa, x2 = 0.1049	1.789 mPa·s
303.15 K, 101 kPa, x2 = 0.26	1.863 mPa·s
303.15 K, 101 kPa, x2 = 0.4678	2.158 mPa·s
303.15 K, 101 kPa, x2 = 0.6079	2.439 mPa·s
303.15 K, 101 kPa, x2 = 0.685	2.55 mPa·s
303.15 K, 101 kPa, x2 = 0.7249	2.557 mPa·s
303.15 K, 101 kPa, x2 = 0.805	2.451 mPa·s
303.15 K, 101 kPa, x2 = 0.89	2.007 mPa·s
303.15 K, 101 kPa, x2 = 0.9549	1.419 mPa·s
308.15 K, 101 kPa, x1 = 0.01	0.815 mPa·s
308.15 K, 101 kPa, x1 = 0.02	0.923 mPa·s
308.15 K, 101 kPa, x1 = 0.032	1.056 mPa·s
308.15 K, 101 kPa, x1 = 0.05	1.263 mPa·s
308.15 K, 101 kPa, x1 = 0.07069	1.48 mPa·s
308.15 K, 101 kPa, x1 = 0.1	1.717 mPa·s
308.15 K, 101 kPa, x1 = 0.11	1.749 mPa·s
308.15 K, 101 kPa, x1 = 0.2	2.109 mPa·s
308.15 K, 101 kPa, x1 = 0.23	2.142 mPa·s
308.15 K, 101 kPa, x1 = 0.41	2.044 mPa·s
308.15 K, 101 kPa, x2 = 0.1049	1.56 mPa·s
308.15 K, 101 kPa, x2 = 0.26	1.616 mPa·s
308.15 K, 101 kPa, x2 = 0.4678	1.856 mPa·s
308.15 K, 101 kPa, x2 = 0.6079	2.072 mPa·s
308.15 K, 101 kPa, x2 = 0.685	2.169 mPa·s
308.15 K, 101 kPa, x2 = 0.7249	2.178 mPa·s
308.15 K, 101 kPa, x2 = 0.805	2.088 mPa·s
308.15 K, 101 kPa, x2 = 0.89	1.675 mPa·s
308.15 K, 101 kPa, x2 = 0.9549	1.23 mPa·s
313.15 K, 101 kPa, x1 = 0.01	0.733 mPa·s
313.15 K, 101 kPa, x1 = 0.02	0.823 mPa·s
313.15 K, 101 kPa, x1 = 0.032	0.933 mPa·s
313.15 K, 101 kPa, x1 = 0.05	1.098 mPa·s
313.15 K, 101 kPa, x1 = 0.07069	1.27 mPa·s
313.15 K, 101 kPa, x1 = 0.1	1.458 mPa·s
313.15 K, 101 kPa, x1 = 0.11	1.495 mPa·s
313.15 K, 101 kPa, x1 = 0.2	1.789 mPa·s
313.15 K, 101 kPa, x1 = 0.23	1.821 mPa·s
313.15 K, 101 kPa, x1 = 0.41	1.731 mPa·s
313.15 K, 101 kPa, x2 = 0.1049	1.365 mPa·s
313.15 K, 101 kPa, x2 = 0.26	1.412 mPa·s
313.15 K, 101 kPa, x2 = 0.4678	1.604 mPa·s
313.15 K, 101 kPa, x2 = 0.6079	1.788 mPa·s
313.15 K, 101 kPa, x2 = 0.685	1.855 mPa·s
313.15 K, 101 kPa, x2 = 0.7249	1.858 mPa·s
313.15 K, 101 kPa, x2 = 0.805	1.781 mPa·s
313.15 K, 101 kPa, x2 = 0.89	1.447 mPa·s
313.15 K, 101 kPa, x2 = 0.9549	1.076 mPa·s
313.15 K, 101.33 kPa, x1 = 0.015	0.7848 mPa·s
313.15 K, 101.33 kPa, x1 = 0.05	1.113 mPa·s
313.15 K, 101.33 kPa, x1 = 0.075	1.292 mPa·s
313.15 K, 101.33 kPa, x1 = 0.1	1.453 mPa·s
313.15 K, 101.33 kPa, x1 = 0.15	1.665 mPa·s
313.15 K, 101.33 kPa, x1 = 0.2	1.777 mPa·s
313.15 K, 101.33 kPa, x1 = 0.25	1.823 mPa·s
313.15 K, 101.33 kPa, x1 = 0.3	1.822 mPa·s
313.15 K, 101.33 kPa, x1 = 0.4	1.756 mPa·s
313.15 K, 101.33 kPa, x1 = 0.5	1.649 mPa·s
313.15 K, 101.33 kPa, x1 = 0.6	1.539 mPa·s
313.15 K, 101.33 kPa, x1 = 0.7	1.446 mPa·s
313.15 K, 101.33 kPa, x1 = 0.8	1.375 mPa·s
313.15 K, 101.33 kPa, x1 = 0.85	1.35 mPa·s
313.15 K, 101.33 kPa, x1 = 0.9	1.327 mPa·s
313.15 K, 101.33 kPa, x1 = 0.925	1.331 mPa·s
313.15 K, 101.33 kPa, x1 = 0.95	1.332 mPa·s
313.15 K, 101.33 kPa, x1 = 0.975	1.336 mPa·s
318.15 K, 101 kPa, x1 = 0.01	0.664 mPa·s
318.15 K, 101 kPa, x1 = 0.02	0.739 mPa·s
318.15 K, 101 kPa, x1 = 0.032	0.836 mPa·s
318.15 K, 101 kPa, x1 = 0.05	0.966 mPa·s
318.15 K, 101 kPa, x1 = 0.07069	1.103 mPa·s
318.15 K, 101 kPa, x1 = 0.1	1.261 mPa·s
318.15 K, 101 kPa, x1 = 0.11	1.315 mPa·s
318.15 K, 101 kPa, x1 = 0.2	1.539 mPa·s
318.15 K, 101 kPa, x1 = 0.23	1.579 mPa·s
318.15 K, 101 kPa, x1 = 0.41	1.484 mPa·s
318.15 K, 101 kPa, x2 = 0.1049	1.182 mPa·s
318.15 K, 101 kPa, x2 = 0.26	1.237 mPa·s
318.15 K, 101 kPa, x2 = 0.4678	1.397 mPa·s
318.15 K, 101 kPa, x2 = 0.6079	1.561 mPa·s
318.15 K, 101 kPa, x2 = 0.685	1.604 mPa·s
318.15 K, 101 kPa, x2 = 0.7249	1.598 mPa·s
318.15 K, 101 kPa, x2 = 0.805	1.539 mPa·s
318.15 K, 101 kPa, x2 = 0.89	1.255 mPa·s
318.15 K, 101 kPa, x2 = 0.9549	0.95 mPa·s
323.15 K, 100 kPa, x1 = 0.2	1.375 mPa·s and 1.3 mPa·s
323.15 K, 100 kPa, x1 = 0.3	1.387 mPa·s
323.15 K, 100 kPa, x2 = 0.1	1.03 mPa·s
323.15 K, 100 kPa, x2 = 0.2	1.08 mPa·s
323.15 K, 100 kPa, x2 = 0.3	1.11 mPa·s
323.15 K, 100 kPa, x2 = 0.4	1.21 mPa·s
323.15 K, 100 kPa, x2 = 0.5	1.26 mPa·s
323.15 K, 100 kPa, x2 = 0.6	1.37 mPa·s
323.15 K, 100 kPa, x2 = 0.7	1.37 mPa·s
323.15 K, 100 kPa, x2 = 0.8	1.37 mPa·s
323.15 K, 100 kPa, x2 = 0.9	1.14 mPa·s
323.15 K, 101 kPa, x1 = 0.01	0.604 mPa·s
323.15 K, 101 kPa, x1 = 0.02	0.668 mPa·s
323.15 K, 101 kPa, x1 = 0.05	0.856 mPa·s
323.15 K, 101 kPa, x1 = 0.07069	0.969 mPa·s
323.15 K, 101 kPa, x1 = 0.1	1.101 mPa·s
